The record followed here is US8163756B2 (priority 2004, dated 2012).

In assay [1] the target is phosphorylated p-38-alpha kinase (Homo sapiens, UniProt Q16539). As to the kind of experiment: P-38 alpha kinase assay P1 (coupled spectrophotometric, 2 h pre-incubation). The format is biochemical. As to conditions: method P1 (2 h pre-incubation); read-out: P-38 Data.
For the next assay, the target named is B-Raf(V599E) kinase (Homo sapiens, UniProt P15056, V600E). As to the kind of experiment: B-Raf(V599E) kinase assay B1 (construct 1, MEK1 substrate, coupled spectrophotometric). The format is biochemical. On the procedure:
The test compounds were incubated with the reaction mixtureat 30° C. for 2 h. […] The reaction rate was calculated using the […] time frame. […] IC50 values were calculated from a series of percent inhibition values determined at a range of inhibitor concentrations using software routines as implemented in the GraphPad Prism software package.

Molecules are shown by their SMILES. Like-named read-outs stand apart in the source and are kept apart here.

B-Raf(V599E) kinase, sequence (P15056 with tags, fused parts or gaps V600E): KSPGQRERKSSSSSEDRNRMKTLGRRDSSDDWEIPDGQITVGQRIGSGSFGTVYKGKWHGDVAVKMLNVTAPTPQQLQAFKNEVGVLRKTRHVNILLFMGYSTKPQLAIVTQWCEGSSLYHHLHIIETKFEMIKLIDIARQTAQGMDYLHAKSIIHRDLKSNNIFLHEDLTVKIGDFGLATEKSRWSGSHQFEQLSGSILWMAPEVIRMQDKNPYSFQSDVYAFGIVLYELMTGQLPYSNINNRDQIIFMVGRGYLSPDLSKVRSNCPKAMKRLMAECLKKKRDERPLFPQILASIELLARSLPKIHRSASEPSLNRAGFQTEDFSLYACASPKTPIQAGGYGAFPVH
phosphorylated p-38-alpha kinase, sequence (Q16539 1-360 isoform Q16539-2): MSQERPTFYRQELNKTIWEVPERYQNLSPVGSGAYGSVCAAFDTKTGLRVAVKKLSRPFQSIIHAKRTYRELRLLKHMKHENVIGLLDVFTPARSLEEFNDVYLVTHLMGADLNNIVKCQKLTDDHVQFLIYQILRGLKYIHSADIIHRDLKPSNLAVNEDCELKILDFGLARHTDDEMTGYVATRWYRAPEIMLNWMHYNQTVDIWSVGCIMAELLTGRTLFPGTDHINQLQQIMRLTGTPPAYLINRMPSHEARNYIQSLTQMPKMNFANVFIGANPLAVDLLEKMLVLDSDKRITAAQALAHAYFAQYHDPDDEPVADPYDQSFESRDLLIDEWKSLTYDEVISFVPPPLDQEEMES

As for `COC[C@@H]1CCCN1C(=O)Cc1ccc(-n2nc(C(C)(C)C)cc2NC(=O)Nc2cccc(Cl)c2Cl)cc1` [Example 485, (S)-1-(3-t-butyl-1-(4-(2-(2-(methoxymethyl)pyrrolidin-1-yl)-2-oxoethyl)phenyl)-1H-pyrazol-5-yl)-3-(2,3-dichlorophenyl)urea], in assay [1], the IC50 was 12 nM.

In the case of `O=C(Cc1ccc(-n2nc(-c3cccc(F)c3)cc2NC(=O)Nc2cccc(Cl)c2Cl)cc1)NCC(O)CO` (centres unmarked) [Example 481, 1-(2,3-dichlorophenyl)-3-(1-(4-(2-(2,3-dihydroxypropylamino)-2-oxoethyl)phenyl)-3-(3-fluorophenyl)-1H-pyrazol-5-yl)urea], in assay [1], the IC50 came to 33 nM.

`O=C(Cc1cccc(-n2nc(-c3cccs3)cc2NC(=O)Nc2cccc3ccccc23)c1)NCCO` [Example 428, 1-(1-(3-(2-(2-hydroxyethylamino)-2-oxoethyl)phenyl)-3-(thiophen-2-yl)-1H-pyrazol-5-yl)-3-(naphthalen-1-yl)urea]: the IC50 in assay [1] was 12 nM.

As for `O=C(Cc1cccc(-n2nc(-c3ccccc3F)cc2NC(=O)Nc2cccc3ccccc23)c1)NCC(O)CO` (centres unmarked) [Example 425, 1-(1-(3-(2-(2,3-dihydroxypropylamino)-2-oxoethyl)phenyl)-3-(2-fluorophenyl)-1H-pyrazol-5-yl)-3-(naphthalen-1-yl)urea], the IC50 in assay [1] came out at 29 nM.

On to `NC(=O)Cc1ccc(-n2nc(-c3cccc(F)c3)cc2NC(=O)Nc2cccc(Cl)c2Cl)cc1` [Example 480, 1-(1-(4-(2-amino-2-oxoethyl)phenyl)-3-(3-fluorophenyl)-1H-pyrazol-5-yl)-3-(2,3-dichlorophenyl)urea], for which the IC50 in assay [1] is 73 nM.

On to `NC(=O)Cc1ccc(-n2nc(-c3cccs3)cc2NC(=O)N[C@H]2CCc3ccccc32)cc1` [Example 489, 1-(1-(4-(2-amino-2-oxoethyl)phenyl)-3-(thiophen-2-yl)-1H-pyrazol-5-yl)-3-((S)-2,3-dihydro-1H-inden-1-yl)urea], for which the IC50 in assay [1] amounted to 35 nM.

On to `O=C(Cc1cccc(-n2nc(-c3ccccc3F)cc2NC(=O)Nc2ccc(F)c(F)c2F)c1)NCC(O)CO` (centres unmarked) [Example 424, 1-(1-(3-(2-(2,3-Dihydroxypropylamino)-2-oxoethyl)phenyl)-3-(2-fluorophenyl)-1H-pyrazol-5-yl)-3-(2,3,4-trifluorophenyl)urea], for which the IC50 in assay [1] turned out to be 47 nM.

For `NC(=O)Cc1cccc(-n2nc(-c3nccs3)cc2NC(=O)Nc2cccc(Cl)c2Cl)c1` [Example 410, 1-(1-(3-(2-amino-2-oxoethyl)phenyl)-3-(thiazol-2-yl)-1H-pyrazol-5-yl)-3-(2,3-dichlorophenyl)urea], the IC50 in assay [1] was 88 nM.

Turning to `NC(=O)Cc1cccc(-n2nc(-c3ccccc3F)cc2NC(=O)Nc2cccc3ccccc23)c1` [Example 423, 1-(1-(3-(2-amino-2-oxoethyl)phenyl)-3-(2-fluorophenyl)-1H-pyrazol-5-yl)-3-(naphthalen-1-yl)urea], the IC50 in assay [1] came to 21 nM.

On to `CC(C)(C)c1cc(NC(=O)Nc2cc(F)c(F)cc2F)n(-c2cccc(CC(=O)O)c2)n1` [Example 370, 2-(3-(3-t-butyl-5-(3-(2,4,5-trifluorophenyl)-ureido)-1H-pyrazol-1-yl)phenyl)acetic acid], for which the IC50 on B-Raf(V599E) kinase is 8 nM.

On to `CC(C)(C)c1cc(NC(=O)Nc2ccc(F)cc2F)n(-c2ccc3c(c2)C(=O)NCC3)n1` [Example 311, 1-(3-t-butyl-1-(1-oxo-1,2,3,4-tetrahydroiso-quinolin-7-yl)-1H-pyrazol-5-yl)-3-(2,4-difluorophenyl)urea], for which, at B-Raf(V599E) kinase, the IC50 was found to be 32 nM.

Turning to `CC(C)(C)c1cc(NC(=O)Nc2cccc(Cl)c2Cl)n(-c2cccc(CC(=O)N3CC[C@@H](O)C3)c2)n1` [Example 443, 1-(3-t-butyl-1-(3-(2-((R)-3-hydroxypyrrolidin-1-yl)-2-oxoethyl)phenyl)-1H-pyrazol-5-yl)-3-(2,3-dichlorophenyl)urea], the IC50 on B-Raf(V599E) kinase came to 9 nM.

Consider `CC(C)(C)c1ncc(NC(=O)Nc2cccc(Oc3ccccc3)c2)c(-c2ccccc2)n1` [Example 280, 1-(2-t-butyl-4-phenylpyrimidin-5-yl)-3-(3-phenoxyphenyl)urea], for which, on B-Raf(V599E) kinase, the IC50 came out at 275 nM.

In turn, `CC(C)(C)c1cc(NC(=O)Nc2cccc(Cl)c2Cl)n(-c2ccc(C(=O)O)cc2)n1` [Example 244, 4-{3-t-butyl-5-[3-(2,3-dichlorophenyl)ureido]-1H-pyrazol-1-yl}benzoic acid] had an IC50 against B-Raf(V599E) kinase of 38 nM.

The compound `CC(C)(C)c1cc(NC(=O)Nc2ccccc2F)n(-c2cccc(CO)c2)n1` [Example 219, 1-{3-t-butyl-1-[3-(hydroxymethyl)phenyl]-1H-pyrazol-5-yl}-3-(2-fluorophenyl)urea] had an IC50 on B-Raf(V599E) kinase of 55 nM.

`CC(C)(C)c1cc(NC(=O)Nc2cccc(Cl)c2)n(-c2cccc(CO)c2)n1` [Example 222] showed an IC50 at B-Raf(V599E) kinase of 47 nM.

Turning to `CC(C)(C)c1cc(NC(=O)Nc2cccc(F)c2)n(-c2ccc3c(c2)CCN3)n1` [Example 306, 1-(3-t-butyl-1-(indolin-5-yl)-1H-pyrazol-5-yl)-3-(3-fluorophenyl)urea], the IC50 against B-Raf(V599E) kinase was 36 nM.

`CC(C)(C)c1cc(NC(=O)Nc2ccccc2Cl)n(-c2ccc3c(c2)C(=O)NCC3)n1` [Example 313, 1-(3-t-butyl-1-(1-oxo-1,2,3,4-tetrahydroiso-quinolin-7-yl)-1H-pyrazol-5-yl)-3-(2-chlorophenyl)urea] yielded an IC50 at B-Raf(V599E) kinase of 46 nM.

For `CC(C)(C)c1cc(NC(=O)Nc2cccc(Cl)c2Cl)n(-c2cccc(CC(N)=O)c2)n1` [Example 25, 1-{1-[3-(2-amino-2-oxoethyl)phenyl]-3-t-butyl-1H-pyrazol-5-yl}-3-(2,3-dichlorophenyl)urea], the IC50 against B-Raf(V599E) kinase worked out at 3.5 nM.

Turning to `CC(C)NCCc1cccc(-n2nc(C(C)(C)C)cc2NC(=O)Nc2cccc(Cl)c2Cl)c1` [Example 259, 1-(3-t-butyl-1-(3-(2-(isopropylamino)ethyl)phenyl)-1H-pyrazol-5-yl)-3-(2,3-dichlorophenyl)urea], on B-Raf(V599E) kinase, the IC50 was found to be 8.3 nM.

Consider `CC(C)(C)c1cc(NC(=O)NC2CCCCC2)n(-c2ccc3c(c2)C(=O)NCC3)n1` [Example 310, 1-(3-t-butyl-1-(1-oxo-1,2,3,4-tetrahydroiso-quinolin-7-yl)-1H-pyrazol-5-yl)-3-cyclohexylurea], for which the IC50 at B-Raf(V599E) kinase was determined as 98 nM.

As for `CC(C)(C)c1cc(NC(=O)NC2CCCCC2)n(-c2cccc(-c3cccnc3)c2)n1` [Example 274, 1-[5-t-butyl-2-(3-pyridin-3-yl-phenyl)-2H-pyrazol-3-yl]-3-cyclohexyl-urea], on B-Raf(V599E) kinase, the IC50 was found to be 134 nM.

Turning to `CC(C)(C)c1cc(NC(=O)Nc2cccc(Cl)c2Cl)n(-c2ccc(C(=N)NO)cc2)n1` [Example 260, 4-{3-t-butyl-5-[3-(2,3-dichlorophenyl)ureido]pyrazol-1-yl}-N-hydroxybenzamidine], the IC50 against B-Raf(V599E) kinase was found to be 4 nM.

`CC(C)(C)c1cc(NC(=O)Nc2ccccc2F)n(-c2cc(CC(N)=O)c3ccccc3c2)n1` [Example 89, 1-(1-(4-(2-amino-2-oxoethyl)naphthalen-2-yl)-3-t-butyl-1H-pyrazol-5-yl)-3-(2-fluorophenyl)urea] displayed an IC50 at B-Raf(V599E) kinase of 5.5 nM.

On B-Raf(V599E) kinase, `CC(C)(C)c1cc(NC(=O)Nc2cccc(F)c2F)n(-c2cc(CC(N)=O)c3ccccc3c2)n1` [Example 90, 1-(1-(4-(2-amino-2-oxoethyl)naphthalen-2-yl)-3-t-butyl-1H-pyrazol-5-yl)-3-(2,3-difluorophenyl)urea] came in with an IC50 of 3.9 nM.

Take `CC(C)(C)c1cc(NC(=O)Nc2cc(F)cc(F)c2F)n(-c2ccc3[nH]c(=O)ccc3c2)n1` [Example 331]: the IC50 at B-Raf(V599E) kinase amounted to 3.4 nM.

Compound `CCOC(=O)c1ccc(-n2nc(C(C)(C)C)cc2NC(=O)Nc2cccc(Cl)c2Cl)cc1` [Example 243, ethyl 4-{3-t-butyl-5-[3-(2,3-dichlorophenyl)ureido]-1H-pyrazol-1-yl}benzoate] showed an IC50 against B-Raf(V599E) kinase of 41 nM.

Turning to `CC(C(=O)O)c1cccc(-n2nc(C(C)(C)C)cc2NC(=O)Nc2cccc(Cl)c2Cl)c1` (centres unmarked) [Example 248, 2-(3-(3-t-butyl-5-(3-(2,3-dichlorophenyl)ureido)-1H-pyrazol-1-yl)phenyl)propanoic acid], the IC50 against B-Raf(V599E) kinase came out at 8.1 nM.

For the compound `CC(C)(C)c1cc(NC(=O)Nc2ccc(Cl)cc2)n(-c2ccc3c(c2)CCC(=O)N3)n1` [Example 315, 1-(3-t-butyl-1-(2-oxo-1,2,3,4-tetrahydro-quinolin-6-yl)-1H-pyrazol-5-yl)-3-(4-chlorophenyl)urea], the IC50 against B-Raf(V599E) kinase worked out at 186 nM.

Turning to `CC(C)(C)c1cc(NC(=O)Nc2ccc3c(c2)OCO3)n(-c2cccc(CC(N)=O)c2)n1` [Example 395, 1-{1-[3-(2-amino-2-oxoethyl)phenyl]-3-t-butyl-1H-pyrazol-5-yl}-3-(benzo[d][1,3]dioxol-5-yl)urea], the IC50 against B-Raf(V599E) kinase is 50 nM.

At B-Raf(V599E) kinase, `CC(C)(C)c1cc(NC(=O)Nc2cccc(Cl)c2Cl)n(-c2cccc(C(=O)O)c2)n1` [Example 226, 3-{3-t-butyl-5-[3-(2,3-dichlorophenyl)ureido]-1H-pyrazol-1-yl}benzoic acid] displayed an IC50 of 20 nM.

`CC(C)(C)c1cc(NC(=O)Nc2ccccc2F)n(-c2cccc(CC(N)=O)c2)n1` [Example 393, 1-{1-[3-(2-amino-2-oxoethyl)phenyl]-3-t-butyl-1H-pyrazol-5-yl}-3-(2-fluorophenyl)urea] displayed an IC50 against B-Raf(V599E) kinase of 20 nM.

`CC(C)(C)c1cc(NC(=O)Nc2cccc(F)c2F)n(-c2cccc(CC(N)=O)c2)n1` [Example 394, 1-{1-[3-(2-amino-2-oxoethyl)phenyl]-3-t-butyl-1H-pyrazol-5-yl}-3-(2,3-difluorophenyl)urea]: the IC50 on B-Raf(V599E) kinase (Method B1, read-out: B-Raf Data) was 8.8 nM.

At B-Raf(V599E) kinase, `CC(C)(C)c1cc(NC(=O)Nc2ccccc2F)n(-c2ccc3c(c2)C(=O)NCC3)n1` [Example 312, 1-(3-t-butyl-1-(1-oxo-1,2,3,4-tetrahydroiso-quinolin-7-yl)-1H-pyrazol-5-yl)-3-(2-fluorophenyl)urea] came in with an IC50 of 35 nM.

Consider `CNCCc1cccc(-n2nc(C(C)(C)C)cc2NC(=O)Nc2cccc(Cl)c2Cl)c1` [Example 258, 1-(3-t-butyl-1-(3-(2-(methylamino)ethyl)phenyl)-1H-pyrazol-5-yl)-3-(2,3-dichlorophenyl)urea], for which the IC50 on B-Raf(V599E) kinase is 3.4 nM.
